Laboratory results published in US20260250318A1, “COMPOSITIONS AND METHODS FOR CROSSING THE BLOOD BRAIN BARRIER” (VOYAGER THERAPEUTICS, INC., priority 2022, published 2026).

What was measured:
Conditions in all cases: synthetic library passage 3, intravenous, relative to wild-type AAV9
brain [1] = test: NGS fold enrichment of synthetic library (passage 3) in C57Bl/6 mice, first cross-species screen; assay type: in vivo
In short: (§1)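 Passage-3 synthetic capsid library given intravenously […] to NHPs (2-4 years) and BALB/c or C57Bl/6 mice (n=3, 6-8 weeks). After e.g. 28 days, tissue RNA was RT-PCR amplified and NGS-sequenced; values are fold enrichment of each variant relative to wild-type AAV9.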

brain [2] = test: NGS fold enrichment of synthetic library (passage 3) in BALB/c mice, first cross-species screen; assay type: in vivo
In short: as §1

[3] = system: brain, spinal cord, and DRG of the NHPs; test: NGS fold enrichment of synthetic library (passage 3) in NHPs, first cross-species screen; assay type: in vivo, cynomolgus macaques (Macaca fascicularis)
In short: as §1

[4] = RNA from brain of C57Bl/6 mice, NGS
[5] = RNA from brain of BALB/c mice, NGS
[6] = RNA from spinal cord of NHPs, NGS

| Sequence | Fold enrichment over AAV9 in the brain of Mice (C57Bl/6) (brain [1]; [4]) | Fold enrichment over AAV9 in the brain of Mice (BALB/c) (brain [2]; [5]) | Fold enrichment over AAV9 in the brain of NHPs ([3]; RNA from brain of NHPs, NGS) | Fold enrichment over AAV9 in the spinal cord of NHPs [3, 6] | Fold enrichment over AAV9 in the brain of Mice (C57Bl/6) (brain [1]; RNA NGS, brain of C57Bl/6 mice) | Fold enrichment over AAV9 in the brain of Mice (BALB/c) (brain [2]; RNA NGS, brain of BALB/c mice) | Fold enrichment over AAV9 in the brain of NHPs ([3]; RNA NGS, brain of NHPs) | Fold enrichment over AAV9 in the spinal cord of NHPs ([3]; RNA NGS, spinal cord of NHPs) |
| --- | --- | --- | --- | --- | --- | --- | --- | --- |
| GSGQKQERAVSKQT | 1.174 fold | 0.732 fold | 1.277 fold | 0.000 fold |  |  |  |  |
| GSGQLGLSVTNQQT | 1.395 fold | 0.376 fold | 1.364 fold | 6.906 fold |  |  |  |  |
| GSGQLIASVVNQQT |  |  |  |  | 0.197 fold | 0.359 fold | 1.005 fold | 0.086 fold |
| GSGQLPQSGLNQQT | 0.641 fold | 0.318 fold | 1.218 fold | 1.504 fold |  |  |  |  |
| GSGQLPRQMTNQQT | 0.400 fold | 0.562 fold | 1.376 fold | 3.550 fold |  |  |  |  |
| GSGQLRSLSTNQQT |  |  |  |  | 1.310 fold | 0.382 fold | 1.622 fold | 6.855 fold |
| GSGQLSGIGGNQQT |  |  |  |  | 0.993 fold | 0.626 fold | 3.266 fold | 0.287 fold |
| GSGQLSGTPQNQQT | 1.025 fold | 0.643 fold | 1.185 fold | 1.382 fold |  |  |  |  |
| GSGQLSHQSVNQQT |  |  |  |  | 0.720 fold | 0.695 fold | 1.898 fold | 4.032 fold |
| GSGQLSVPYDNQQT |  |  |  |  | 0.622 fold | 0.111 fold | 1.521 fold | 0.000 fold |
| GSGQLVLTLQNQQT | 0.336 fold | 0.336 fold | 1.143 fold | 0.000 fold |  |  |  |  |
| GSGQLVSGLYNQQT | 0.842 fold | 0.733 fold | 1.325 fold | 0.000 fold |  |  |  |  |
| GSGQLVTSGPNQQT |  |  |  |  | 0.964 fold | 0.433 fold | 1.669 fold | 5.271 fold |
| GSGQMASRESNQQT |  |  |  |  | 0.341 fold | 0.288 fold | 2.492 fold | 0.300 fold |
| GSGQMGRQAVNQQT |  |  |  |  | 0.535 fold | 0.411 fold | 1.554 fold | 1.529 fold |
| GSGQMKDLHRNQQT |  |  |  |  | 0.587 fold | 0.506 fold | 1.014 fold | 1.068 fold |
| GSGQMQPHVQNQQT | 0.387 fold | 0.153 fold | 1.389 fold | 9.381 fold |  |  |  |  |
| GSGQMQSAGSNQQT |  |  |  |  | 1.034 fold | 1.128 fold | 1.482 fold | 0.116 fold |
| GSGQMSDVHGNQQT | 0.408 fold | 0.548 fold | 1.346 fold | 7.172 fold |  |  |  |  |
| GSGQMVHTIGNQQT |  |  |  |  | 0.406 fold | 0.430 fold | 1.026 fold | 1.328 fold |

| Sequence | Fold enrichment over AAV9 in the brain of Mice (C57Bl/6) (brain [1]; [4]) | Fold enrichment over AAV9 in the brain of Mice (BALB/c) (brain [2]; [5]) | Fold enrichment over AAV9 in the brain of NHPs ([3]; RNA from brain of NHPs, NGS) | Fold enrichment over AAV9 in the spinal cord of NHPs [3, 6] | Fold enrichment over AAV9 in the brain of Mice (C57Bl/6) (brain [1]; RNA NGS, brain of C57Bl/6 mice) | Fold enrichment over AAV9 in the brain of Mice (BALB/c) (brain [2]; RNA NGS, brain of BALB/c mice) | Fold enrichment over AAV9 in the brain of NHPs ([3]; RNA NGS, brain of NHPs) | Fold enrichment over AAV9 in the spinal cord of NHPs ([3]; RNA NGS, spinal cord of NHPs) |
| --- | --- | --- | --- | --- | --- | --- | --- | --- |
| GSGQNAGSFPNQQT |  |  |  |  | 1.091 fold | 0.286 fold | 1.928 fold | 12.575 fold |
| GSGQNAHAKEGQQT |  |  |  |  | 0.875 fold | 1.179 fold | 1.108 fold | 0.000 fold |
| GSGQNAQQAAAQQT |  |  |  |  | 0.937 fold | 0.604 fold | 1.568 fold | 4.239 fold |
| GSGQNARLKDNQQT | 0.580 fold | 0.938 fold | 1.354 fold | 2.395 fold |  |  |  |  |
| GSGQNAYSSQAQQT | 0.629 fold | 0.216 fold | 1.201 fold | 12.096 fold |  |  |  |  |
| GSGQNERHLVLQQT |  |  |  |  | 0.416 fold | 0.150 fold | 1.019 fold | 5.354 fold |
| GSGQNGGSSNRQQT |  |  |  |  | 1.255 fold | 0.844 fold | 1.109 fold | 2.594 fold |
| GSGQNGHLSLKQQT |  |  |  |  | 0.718 fold | 0.270 fold | 2.362 fold | 1.896 fold |
| GSGQNHGLQSGQQT |  |  |  |  | 0.938 fold | 0.779 fold | 1.530 fold | 4.960 fold |
| GSGQNHGVLSNQQT |  |  |  |  | 1.113 fold | 0.701 fold | 2.254 fold | 1.603 fold |
| GSGQNHRPSVLQQT |  |  |  |  | 0.433 fold | 0.582 fold | 1.983 fold | 5.582 fold |
| GSGQNHRSADMQQT |  |  |  |  | 0.417 fold | 0.212 fold | 1.084 fold | 12.001 fold |
| GSGQNIGHSLPQQT | 0.740 fold | 0.478 fold | 1.264 fold | 6.183 fold |  |  |  |  |
| GSGQNKDHSTRRQT | 0.384 fold | 0.477 fold | 1.197 fold | 0.000 fold |  |  |  |  |
| GSGQNKQMLSGNTT | 1.074 fold | 0.404 fold | 1.410 fold | 2.219 fold |  |  |  |  |
| GSGQNLAGRMDQQT |  |  |  |  | 0.362 fold | 0.295 fold | 1.864 fold | 0.085 fold |
| GSGQNLGLLGAQQT | 0.524 fold | 0.226 fold | 1.161 fold | 1.458 fold |  |  |  |  |
| GSGQNLHSGLPQQT | 1.054 fold | 0.592 fold | 1.363 fold | 1.594 fold |  |  |  |  |
| GSGQNPIRGAMQQT | 1.296 fold | 0.427 fold | 1.126 fold | 1.327 fold |  |  |  |  |
| GSGQNPSFMRGQQT | 1.293 fold | 1.094 fold | 1.252 fold | 1.454 fold |  |  |  |  |
